A word on the viability: it is a per cent measure of how many cells are alive, often set against a control. As usually defined, the EC50 is the concentration at which the effect is half-maximal.

From paper PMC11944884, “Bioactive Secondary Metabolites of Two Chinese Edible Boletes, Phlebopus portentosus and Butyriboletus roseoflavus” (Molecules, 2025) come the findings set out here.

Where two headings read alike, the source gives them in different places.

One series concerns Hela229. In words: Cytotoxicity CCK-8 assay, Hela229. The conditions noted are these: Homo sapiens, HeLa 229; for IC50: Hela229; for inhibition at 6.25 µM: Hela229, 6.25 μM; for inhibition at 6.25 µM / inhibition at 12.5 µM / inhibition at 25 µM / inhibition at 50 µM / inhibition at 100 µM: 48 h, read-out: Cell proliferation inhibition (%); for inhibition at 12.5 µM: Hela229, 12.5 μM; for inhibition at 25 µM: Hela229, 25 μM; for inhibition at 50 µM: Hela229, 50 μM; for inhibition at 100 µM: Hela229, 100 μM. It counts as cell-based. On the technique in general: Tetrazolium dyes change colour on reduction, which living cells bring about.

The next series deals with SGC7901. In words: Cytotoxicity CCK-8 assay, SGC7901. It counts as cell-based. The settings on record: Homo sapiens, SGC-7901; for IC50: SGC7901; for inhibition at 6.25 µM: SGC7901, 6.25 μM; for inhibition at 6.25 µM / inhibition at 12.5 µM / inhibition at 25 µM / inhibition at 50 µM / inhibition at 100 µM: 48 h, read-out: Cell proliferation inhibition (%); for inhibition at 12.5 µM: SGC7901, 12.5 μM; for inhibition at 25 µM: SGC7901, 25 μM; for inhibition at 50 µM: SGC7901, 50 μM; for inhibition at 100 µM: SGC7901, 100 μM.

The test system of a further series is PC-3. In words: Cytotoxicity CCK-8 assay, PC-3. Type of series: cell-based. The settings on record: Homo sapiens; for IC50: PC-3; for inhibition at 6.25 µM: PC-3, 6.25 μM; for inhibition at 6.25 µM / inhibition at 12.5 µM / inhibition at 25 µM / inhibition at 50 µM / inhibition at 100 µM: 48 h, read-out: Cell proliferation inhibition (%); for inhibition at 12.5 µM: PC-3, 12.5 μM; for inhibition at 25 µM: PC-3, 25 μM; for inhibition at 50 µM: PC-3, 50 μM; for inhibition at 100 µM: PC-3, 100 μM.

The subject of the next series is BEL7402. In words: Cytotoxicity CCK-8 assay, BEL7402. It counts as cell-based. The settings on record: Homo sapiens, Bel-7402; for IC50: BEL7402; for inhibition at 6.25 µM: BEL7402, 6.25 μM; for inhibition at 6.25 µM / inhibition at 12.5 µM / inhibition at 25 µM / inhibition at 50 µM / inhibition at 100 µM: 48 h, read-out: Cell proliferation inhibition (%); for inhibition at 12.5 µM: BEL7402, 12.5 μM; for inhibition at 25 µM: BEL7402, 25 μM; for inhibition at 50 µM: BEL7402, 50 μM; for inhibition at 100 µM: BEL7402, 100 μM.

The test system of the next series is MCF-7/ADR. In words: Cytotoxicity CCK-8 assay, MCF-7/ADR. It counts as cell-based. The conditions noted are these: Homo sapiens, NCI/ADR-RES; for inhibition at 6.25 µM / inhibition at 12.5 µM / inhibition at 25 µM / inhibition at 50 µM / inhibition at 100 µM: 48 h, read-out: Cell proliferation inhibition (%).
The subject of series [1] is SH-SY5Y cells. In words: Neuroprotection against Aβ25−35-induced neurotoxicity (MTT).
Procedure: The cells, obtained from the American Type Culture Collection (ATCC, Manassas, VA, USA) at high passages, maintained at 37 °C in a humidified atmosphere containing 5% CO2. Cells were seeded into 96-well plates at a density of 2 × 10^5 cells/mL in MEM/F12 medium supplemented with 10% (v/v) fetal bovine serum. Experiments were carried out after 24 h of seeding. Test compounds and positive control (epigallocatechin-3-gallate, EGCG; NAC) were made to 10^−2 M stock solutions with DMSO and then diluted to corresponding concentrations with cell culture medium. Cells were incubated with test compounds or EGCG (10 μM, Sigma, St. Louis, MO, USA, purity > 98%)/NAC for 2 h, followed by exposure to 80 μM H2O2 or 10 μM Aβ25−35 for another 24 h without medium replacement. After treatment, 10 μL of MTT (5 mg/mL) was added to each well and incubated at 37 °C for 3 h. The cells were finally lysed with 100% DMSO, and the absorbance of MTT formazan was measured at 490 nm using a microplate reader.
Series [2] deals with SH-SY5Y cells. In words: Neuroprotection against H2O2-induced neurotoxicity (MTT). It counts as cell-based.
The test system of a further series is coxsackievirus B3. In words: Anti-coxsackievirus assay (CPE / MTT) in Vero cells. It counts as cell-based.
The subject of series [3] is Hela229, SGC7901, PC-3, BEL7402, and MCF-7/ADR. In words: Cytotoxicity CCK-8 assay, small panel of human cancer cell lines (summary statements). Type of series: cell-based.
The next series deals with influenza virus A/H3N2. In words: microbe, parasite or virus in culture. It counts as cell-based, influenza virus A (H3N2 strain). The settings on record: MDCK cells.
For series [4], the system named is influenza virus B/Victoria strain. In words: microbe, parasite or virus in culture. Type of series: cell-based. The settings on record: MDCK cells.
Setting [5] is: Homo sapiens, SH-SY5Y, read-out: Cell viability (% of control group).

Turning to `O=C1NCCc2c1[nH]c1ccccc21` [Compound 9, 1,2,3,4-tetrahydro-1-oxo-β-carboline], in the series with Hela229, the IC50 was found to be 10.8 µM, the inhibition at 6.25 µM stood at 37.1%, the inhibition at 12.5 µM worked out at 53.7% and the inhibition at 25 µM was 68.7%. Besides, in the series with Hela229, the inhibition at 50 µM was found to be 83.3% and the inhibition at 100 µM turned out to be 88%. Besides, in the series on SGC7901, the IC50 is above 50 µM, the inhibition at 6.25 µM is 13.2%, the inhibition at 12.5 µM is 17.5% and the inhibition at 25 µM worked out at 27.1%. In the series on SGC7901, the inhibition at 50 µM was determined as 37.4% and the inhibition at 100 µM worked out at 44.3%. For the same molecule, in the series with PC-3, the IC50 was above 50 µM, the inhibition at 6.25 µM is 3%, the inhibition at 12.5 µM came out at 1.7% and the inhibition at 25 µM worked out at 4%. For the same molecule, in the series on PC-3, the inhibition at 50 µM turned out to be 2.6% and the inhibition at 100 µM was found to be 14%. In addition, in the series with BEL7402, the IC50 turned out to be 41.5 µM, the inhibition at 6.25 µM came to 12.5%, the inhibition at 12.5 µM came to 24.4% and the inhibition at 25 µM was 44.4%. For the same molecule, in the series with BEL7402, the inhibition at 50 µM stood at 56.4% and the inhibition at 100 µM worked out at 63.6%. Besides, in the series on MCF-7/ADR, the IC50 is above 50 µM, the inhibition at 6.25 µM was -0.9%, the inhibition at 12.5 µM is 1.7% and the inhibition at 25 µM came out at 3.4%. Besides, in the series with MCF-7/ADR, the inhibition at 50 µM came to 2.9% and the inhibition at 100 µM is 2.5%.

Take `O=C1O/C(=C(/C(=O)O)c2ccc(O)cc2)C(O)=C1c1ccc(O)c(O)c1` [Compound 18, xerocomic acid]: in the series on SH-SY5Y cells [1] (setting [5]), the viability at 2.5 µM amounted to 78.2 ± 1.53%, the viability at 5 µM amounted to 77.6 ± 1.97%, the viability at 10 µM was 80.3 ± 1.39% and the viability at 20 µM was determined as 81.2 ± 1.79%. Moreover, the viability at 40 µM in the series with SH-SY5Y cells [1] (setting [5]) was determined as 90.5%.

As to `O=C1O/C(=C(/C(=O)O)c2ccc(O)c(O)c2)C(O)=C1c1ccc(O)c(O)c1` [Compound 19, variegatic acid], in the series on SH-SY5Y cells [2] (setting [5]), the viability at 2.5 µM worked out at 56.4 ± 1.79%, the viability at 5 µM is 59.3 ± 2.94%, the viability at 10 µM was determined as 63.7 ± 2.8% and the viability at 20 µM amounted to 71.5%. The viability at 40 µM in the series with SH-SY5Y cells [2] (setting [5]) is 81.9%.

Consider `CC(C)[C@@H](C)/C=C/[C@@H](C)[C@H]1CC[C@H]2C3=C(CC[C@]12C)[C@@]1(C)CC[C@H](O)C[C@@]12O[C@H]2C3=O` [Compound 29, (22E,24R)-5α,6α-epoxy-3β-hydroxy-ergosta-8,22-dien-7-one], for which the “antiviral effect against coxsackievirus B3” value in the series on coxsackievirus B3 is listed as “moderate antiviral effect”. The molecule also yielded an increased cell survival in the series with coxsackievirus B3 (100 μg/mL, CVB-infected Vero cells) of 35.4%. Further, in the series on coxsackievirus B3 (100 μg/mL, microscope), the “cytopathic morphology of Vero cells infected with coxsackievirus B3” value was “reversed the cytopathic morphology”.

Take `CC(C)[C@@H](C)/C=C/[C@@H](C)[C@H]1CC[C@H]2C3=CC(=O)O[C@@]3(O)CC[C@]12C` [Compound 33, demethylincisterol A3]: in the series with Hela229, the IC50 worked out at 24.4 µM, the inhibition at 6.25 µM is -4.8%, the inhibition at 12.5 µM came out at 5.8% and the inhibition at 25 µM is 52.3%. Also, in the series with Hela229, the inhibition at 50 µM stood at 96.2% and the inhibition at 100 µM was 96.7%. Besides, in the series on SGC7901, the IC50 stood at 26.7 µM, the inhibition at 6.25 µM was determined as 8.3%, the inhibition at 12.5 µM amounted to 16.7% and the inhibition at 25 µM came out at 39.1%. For the same molecule, in the series with SGC7901, the inhibition at 50 µM came out at 93.5% and the inhibition at 100 µM was 94.7%. For the same molecule, in the series with PC-3, the IC50 stood at 28.4 µM, the inhibition at 6.25 µM was found to be 12.4%, the inhibition at 12.5 µM came to 21.6% and the inhibition at 25 µM was determined as 47.3%. For the same molecule, in the series with PC-3, the inhibition at 50 µM stood at 67.7% and the inhibition at 100 µM came out at 85.9%. In addition, in the series with BEL7402, the IC50 is 27.7 µM, the inhibition at 6.25 µM was found to be 10%, the inhibition at 12.5 µM was 15.3% and the inhibition at 25 µM came out at 49.4%. Moreover, in the series on BEL7402, the inhibition at 50 µM is 75.3% and the inhibition at 100 µM amounted to 82.8%. Besides, in the series with MCF-7/ADR, the IC50 was above 50 µM, the inhibition at 6.25 µM was 5.5%, the inhibition at 12.5 µM is 5.1% and the inhibition at 25 µM is 27.1%. Also, in the series on MCF-7/ADR, the inhibition at 50 µM was 42.6% and the inhibition at 100 µM turned out to be 81.6%. Further, the IC50 in series [3] (Hela229, SGC7901, PC-3, and BEL7402 cells, read-out: IC50s) lay in the range of 20 to 30 µM.

In the case of `COc1cccc2c1C(=O)c1c(O)c3c(c(O)c1C2=O)C[C@@](O)(C(=O)CO)C[C@@H]3O[C@H]1C[C@H](N)[C@H](O)[C@H](C)O1` [Doxorubicin, reference compound], the IC50 with Hela229 is 0.75 µM; with SGC7901 it was 0.8 µM; in the series with PC-3 it was 1.78 µM; in the series on BEL7402, 1.59 µM; with MCF-7/ADR, 35.2 µM; in series [3] (over the panel Hela229, SGC7901, PC-3, BEL7402, MCF-7/ADR, read-out: IC50), 0.75 to 35.2 µM. In the series with MCF-7/ADR, the inhibition at 6.25 µM is 46.5%. In addition, the inhibition at 12.5 µM in the series with MCF-7/ADR was determined as 44.2%. Also, the inhibition at 50 µM in the series on MCF-7/ADR turned out to be 52.7%. Also, the inhibition at 100 µM in the series on MCF-7/ADR turned out to be 52.8%.

As for `CC(=O)N[C@@H](CS)C(=O)O` [NAC, N-acetylcysteine, reference compound], the “Cell viability (% of control group)” value in the series with SH-SY5Y cells [2] (500 μM compound, 80 μM H2O2, mean ± SEM) is listed as 81.05%.

On to `NC(=O)c1ncn([C@@H]2O[C@H](CO)[C@@H](O)[C@H]2O)n1` [Ribavirin, reference compound], for which the inhibition at 3.13 µM in the series with influenza virus A/H3N2 (Influenza A virus, A/H3N2 strain, 3.13 μM, read-out: CPE inhibition) is 3.3%; in series [4] (B/Victoria strain, 3.13 μM, read-out: CPE inhibition) it was 0%. Moreover, the inhibition at 6.25 µM in the series on influenza virus A/H3N2 (Influenza A virus, A/H3N2 strain, 6.25 μM, read-out: CPE inhibition) turned out to be 0%; in series [4] (B/Victoria strain, 6.25 μM, read-out: CPE inhibition) it was 0%. The inhibition at 12.5 µM came to 10% with influenza virus A/H3N2 (Influenza A virus, A/H3N2 strain, 12.5 μM, read-out: CPE inhibition) and 25% in [4] (B/Victoria strain, 12.5 μM, read-out: CPE inhibition). The inhibition at 25 µM in the series on influenza virus A/H3N2 (Influenza A virus, A/H3N2 strain, 25 μM, read-out: CPE inhibition) is 50.5%; in series [4] (B/Victoria strain, 25 μM, read-out: CPE inhibition), 62.5%. The inhibition at 50 µM came out at 75% in the series on influenza virus A/H3N2 (Influenza A virus, A/H3N2 strain, 50 μM, read-out: CPE inhibition) and 75% in series [4] (B/Victoria strain, 50 μM, read-out: CPE inhibition). In addition, the inhibition at 100 µM in the series with influenza virus A/H3N2 (Influenza A virus, A/H3N2 strain, 100 μM, read-out: CPE inhibition) amounted to 100%; in [4] (B/Victoria strain, 100 μM, read-out: CPE inhibition) it was 100%. The IC50 with influenza virus A/H3N2 (Influenza A virus, A/H3N2 strain, Table S5, read-out: IC50) stood at 28.3 µM; in series [4] (B/Victoria strain, Table S5, read-out: IC50), 20.6 µM. Further, the EC50 turned out to be 28.3 µM in the series with influenza virus A/H3N2 (influenza virus A (H3N2 strain), read-out: EC50) and 20.6 µM in series [4] (influenza virus B (Victoria strain), read-out: EC50).

Consider “epigallocatechin-3-gallate [EGCG, reference compound]”, for which the “Cell viability (% of control group)” value in the series with SH-SY5Y cells [1] (10 μM compound, 10 μM Aβ25-35, mean ± SEM) worked out at 104.80%.
